# Reference: ChEMBL document CHEMBL1201862, “PubChem BioAssay data set” (2004)
# The source made the active and inactive calls.
# How the values were obtained:
# [1] = Vero E6 cell cytotoxicity, dose response, cytotoxicity control for non-replicating M. tuberculosis project, secondary assay (AID 492998); assay type: functional, VeroE6; settings: Vero C1008
# [2] = microbe, parasite or virus in culture; assay type: functional; settings: Mycobacterium tuberculosis
# [3] = biological target: ATP-dependent molecular chaperone HSP82 (Candida albicans (strain WO-1) (Yeast), UniProt C4YTQ8); test: loss of DOC-induced GRE-beta-galactosidase reporter signal, dose response, Hsp90 inhibitor project, S. cerevisiae, luminescence (AID 2400); assay type: functional, cell-based;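 also: beta-galactosidase luminescence from glucocorticoid response element reporter as proxy for Hsp90 function; inhibitor potency where signal loss means Hsp90 inhibition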
# Chain of ATP-dependent molecular chaperone HSP82 (C4YTQ8 whole entry): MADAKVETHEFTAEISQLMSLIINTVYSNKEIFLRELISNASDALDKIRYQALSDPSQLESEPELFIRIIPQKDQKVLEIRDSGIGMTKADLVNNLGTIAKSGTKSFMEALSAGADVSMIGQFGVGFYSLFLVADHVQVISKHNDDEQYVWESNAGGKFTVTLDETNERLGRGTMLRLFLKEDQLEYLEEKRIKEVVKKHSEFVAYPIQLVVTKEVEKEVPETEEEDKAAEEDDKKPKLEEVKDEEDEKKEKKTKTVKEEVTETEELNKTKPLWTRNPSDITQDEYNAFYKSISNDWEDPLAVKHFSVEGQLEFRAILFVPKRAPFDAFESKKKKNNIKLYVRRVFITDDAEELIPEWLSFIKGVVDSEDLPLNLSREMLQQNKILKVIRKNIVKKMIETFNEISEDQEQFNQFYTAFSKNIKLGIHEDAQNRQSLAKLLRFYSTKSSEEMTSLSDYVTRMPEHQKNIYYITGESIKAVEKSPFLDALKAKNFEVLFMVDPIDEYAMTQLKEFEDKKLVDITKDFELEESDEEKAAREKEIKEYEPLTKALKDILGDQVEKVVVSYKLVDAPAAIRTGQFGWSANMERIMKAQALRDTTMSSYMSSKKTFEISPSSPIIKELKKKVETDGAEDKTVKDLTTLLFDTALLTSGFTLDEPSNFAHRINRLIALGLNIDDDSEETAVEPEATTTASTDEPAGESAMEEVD
# cells = assay type: functional
# [4] = C. albicans growth with fluconazole, confirmation, fluorescence, retest (AID 2467); assay type: functional, cell-based
# [5] = HepG2 cell cytotoxicity, dose response, cytotoxicity control for non-replicating M. tuberculosis project (AID 489018); assay type: functional; settings: Mycobacterium tuberculosis
# [6] = Luminescence Cell-Based Dose Retest to Confirm Inhibitors of Cancer Stem Cells. [Related pubchem assays (depositor defined):AID2717, AID2721]; assay type: functional; settings: Homo sapiens
# [7] = biological target: T1, Serine/threonine-protein phosphatase (Candida dubliniensis (strain CD36 / CBS 7987 / NCPF 3949 / NRRLY-17841) (Yeast), UniProt B9W6M3); test: calcineurin pathway inhibitors in yeast reporter, dose response, S. cerevisiae, CDRE-lacZ, luminescence, secondary (AID 2388); assay type: functional, cell-based;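 also: yeast reporter cells carrying a calcineurin-responsive lacZ construct stimulated with calcium chloride; luminescent beta-galactosidase reporter signal in whole cells rather than isolated phosphatase activity; potency for inhibition where a drop in reporter signal means calcineurin blockade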
# T1 sequence (B9W6M3 whole entry): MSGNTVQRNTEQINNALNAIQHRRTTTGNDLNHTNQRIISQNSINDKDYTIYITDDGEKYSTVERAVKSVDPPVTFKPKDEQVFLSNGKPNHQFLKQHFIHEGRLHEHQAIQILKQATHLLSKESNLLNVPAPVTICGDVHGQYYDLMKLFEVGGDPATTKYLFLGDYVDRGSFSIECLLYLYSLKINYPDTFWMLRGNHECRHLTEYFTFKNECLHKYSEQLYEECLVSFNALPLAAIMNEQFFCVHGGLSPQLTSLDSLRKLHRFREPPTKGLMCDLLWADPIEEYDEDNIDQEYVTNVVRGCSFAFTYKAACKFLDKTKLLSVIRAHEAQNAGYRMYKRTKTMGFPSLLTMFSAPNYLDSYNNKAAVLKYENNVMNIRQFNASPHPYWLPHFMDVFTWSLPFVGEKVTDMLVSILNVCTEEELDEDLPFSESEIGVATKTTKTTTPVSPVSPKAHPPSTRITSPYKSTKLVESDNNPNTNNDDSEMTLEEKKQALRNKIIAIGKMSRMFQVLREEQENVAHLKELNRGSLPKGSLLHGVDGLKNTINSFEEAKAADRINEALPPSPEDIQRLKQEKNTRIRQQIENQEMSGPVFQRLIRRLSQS
# [8] = THP-1 cell cytotoxicity, dose response, cytotoxicity control for non-replicating M. tuberculosis project (AID 489025); assay type: functional
# [9] = NIH-3T3 fibroblast cytotoxicity, dose response, cytotoxicity control, cell-based, fluorescence, Alamar Blue, secondary assay (AID 2327); assay type: functional;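 also: NIH-3T3 mouse fibroblasts cultured with fluconazole at 8 µg/mL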
# [10] = biological target: T2, Zinc finger protein mex-5 (Caenorhabditis elegans, UniProt Q9XUB2); test: MEX-5/TCR-2 RNA interaction inhibitors, dose response, biochemical, C. elegans, fluorescence polarization (AID 1960)
# T2 sequence (Q9XUB2 whole entry): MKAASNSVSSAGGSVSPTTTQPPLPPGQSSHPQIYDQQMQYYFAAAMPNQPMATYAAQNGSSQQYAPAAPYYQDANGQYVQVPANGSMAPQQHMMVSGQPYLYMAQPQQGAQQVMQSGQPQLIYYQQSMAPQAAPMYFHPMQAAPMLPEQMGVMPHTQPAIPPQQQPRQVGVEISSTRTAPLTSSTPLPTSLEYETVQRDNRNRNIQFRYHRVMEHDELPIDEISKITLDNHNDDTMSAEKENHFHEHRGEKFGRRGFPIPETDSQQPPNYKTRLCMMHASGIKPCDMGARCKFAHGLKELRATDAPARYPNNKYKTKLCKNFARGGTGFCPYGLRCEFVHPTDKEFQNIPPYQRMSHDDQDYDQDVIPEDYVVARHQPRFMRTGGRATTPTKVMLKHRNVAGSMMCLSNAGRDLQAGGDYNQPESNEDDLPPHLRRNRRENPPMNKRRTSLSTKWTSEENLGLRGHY
# [11] = biological target: T3, Endoribonuclease toxin MazF (Escherichia coli K-12, UniProt P0AE70); test: fluorescent RNA oligo signal without MazF, dose response, counter-screen for MazEF activator project, biochemical, fluorescence, single-stranded RNase substrate (AID 588502); assay type: functional
# T3 sequence (P0AE70 whole entry): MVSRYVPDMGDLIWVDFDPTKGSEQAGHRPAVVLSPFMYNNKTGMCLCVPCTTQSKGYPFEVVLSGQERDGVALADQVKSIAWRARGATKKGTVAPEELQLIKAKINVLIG
# [12] = biological target: T4, RNA-binding protein pos-1 (Caenorhabditis elegans, UniProt G5EF15); test: inhibitors of POS-1/mex-3 RNA binding, dose response, biochemical, fluorescence polarization (AID 1964);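 also: purified POS-1 fused to maltose binding protein made in E. coli; potency of compounds blocking POS-1 binding to fluorescent RNA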
# T4 sequence (G5EF15 whole entry): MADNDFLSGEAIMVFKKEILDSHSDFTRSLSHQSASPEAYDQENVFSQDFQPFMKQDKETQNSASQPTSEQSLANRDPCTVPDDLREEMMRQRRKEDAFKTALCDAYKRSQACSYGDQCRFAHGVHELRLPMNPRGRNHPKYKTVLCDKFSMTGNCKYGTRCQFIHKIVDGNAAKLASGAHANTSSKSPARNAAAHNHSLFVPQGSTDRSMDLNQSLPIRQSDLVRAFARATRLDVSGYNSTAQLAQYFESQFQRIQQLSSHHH
# [13] = biological target: T3, Endoribonuclease toxin MazF; test: MazF toxin RNase activators, dose response, biochemical, fluorescence, single-stranded RNA substrate, uHTS hits (AID 588481); assay type: functional
# Leucine aminopeptidase = biological target: T5, Leucine aminopeptidase (Plasmodium falciparum 3D7, UniProt Q8IL11); test: P. falciparum M17LAP inhibitors, primary screen, biochemical, fluorogenic H-Leu-NHMec substrate, 1536-well (AID 1619); assay type: functional
# T5 sequence (Q8IL11 whole entry): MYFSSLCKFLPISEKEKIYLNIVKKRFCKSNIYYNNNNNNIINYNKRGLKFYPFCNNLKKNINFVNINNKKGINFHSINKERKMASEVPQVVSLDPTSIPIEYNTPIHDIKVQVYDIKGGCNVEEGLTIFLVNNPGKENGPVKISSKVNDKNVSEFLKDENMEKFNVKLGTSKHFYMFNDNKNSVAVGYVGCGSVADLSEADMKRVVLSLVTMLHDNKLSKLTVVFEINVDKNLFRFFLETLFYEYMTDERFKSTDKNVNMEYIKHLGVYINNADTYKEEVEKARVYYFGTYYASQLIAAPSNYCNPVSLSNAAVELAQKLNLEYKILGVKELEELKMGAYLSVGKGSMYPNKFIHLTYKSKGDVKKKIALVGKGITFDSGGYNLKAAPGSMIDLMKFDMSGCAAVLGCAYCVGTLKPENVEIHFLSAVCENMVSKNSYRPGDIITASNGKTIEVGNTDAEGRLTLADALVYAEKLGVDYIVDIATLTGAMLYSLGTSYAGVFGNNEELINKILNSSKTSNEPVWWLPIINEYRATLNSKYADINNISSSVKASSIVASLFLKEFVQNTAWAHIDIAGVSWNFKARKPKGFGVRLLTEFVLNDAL
# [14] = biological target: T6, Carboxy-terminal domain RNA polymerase II polypeptide A small phosphatase 1 (Homo sapiens, UniProt Q9GZU7); test: inhibitors of CTDSP1, concentration-response testing, biochemical assay, absorbance-based, actives from ultra-high-throughput screening (AID 540297); assay type: functional
# T6 sequence (Q9GZU7 whole entry): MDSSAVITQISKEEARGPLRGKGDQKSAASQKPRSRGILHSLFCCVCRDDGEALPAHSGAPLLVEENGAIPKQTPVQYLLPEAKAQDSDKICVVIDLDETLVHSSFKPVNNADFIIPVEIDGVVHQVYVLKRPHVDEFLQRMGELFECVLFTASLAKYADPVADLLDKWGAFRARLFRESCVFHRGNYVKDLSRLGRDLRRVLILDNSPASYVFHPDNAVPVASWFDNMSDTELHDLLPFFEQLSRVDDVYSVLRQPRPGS
# Genome polyprotein = Genome polyprotein (dengue virus type 2, UniProt P29990); test: Dengue-2 NS5 methyltransferase inhibitors, primary screen, biochemical, confirmation dose response (AID 588689); assay type: functional
# Chain of Genome polyprotein (P29990 2492-3391 limits assumed): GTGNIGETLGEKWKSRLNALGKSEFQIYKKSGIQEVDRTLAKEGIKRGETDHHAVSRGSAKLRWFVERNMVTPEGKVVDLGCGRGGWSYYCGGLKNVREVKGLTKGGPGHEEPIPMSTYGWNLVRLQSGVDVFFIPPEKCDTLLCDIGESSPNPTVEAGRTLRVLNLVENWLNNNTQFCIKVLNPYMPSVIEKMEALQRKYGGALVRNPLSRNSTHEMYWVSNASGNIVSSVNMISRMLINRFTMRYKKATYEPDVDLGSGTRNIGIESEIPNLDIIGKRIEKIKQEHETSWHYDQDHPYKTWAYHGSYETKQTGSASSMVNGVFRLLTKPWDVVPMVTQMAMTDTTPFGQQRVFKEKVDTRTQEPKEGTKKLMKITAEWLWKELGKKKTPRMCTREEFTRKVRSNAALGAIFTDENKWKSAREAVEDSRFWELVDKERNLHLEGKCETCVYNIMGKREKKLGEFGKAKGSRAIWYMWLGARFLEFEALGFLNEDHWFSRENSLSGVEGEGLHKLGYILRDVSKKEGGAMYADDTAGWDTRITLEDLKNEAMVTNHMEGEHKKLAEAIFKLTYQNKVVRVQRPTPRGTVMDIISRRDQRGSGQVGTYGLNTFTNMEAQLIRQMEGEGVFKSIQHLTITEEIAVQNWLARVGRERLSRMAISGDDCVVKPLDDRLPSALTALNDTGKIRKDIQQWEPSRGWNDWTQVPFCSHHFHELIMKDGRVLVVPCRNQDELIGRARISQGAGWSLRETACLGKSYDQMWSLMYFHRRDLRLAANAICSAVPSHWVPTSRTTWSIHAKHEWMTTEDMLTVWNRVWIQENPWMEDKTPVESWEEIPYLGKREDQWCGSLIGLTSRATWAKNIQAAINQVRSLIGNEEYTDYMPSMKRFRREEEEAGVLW
# [15] = intracellular Trypanosoma cruzi inhibitors in host cells – cell-based, plate reader, cherry-pick samples, set 3, dose response (AID 651818); assay type: functional;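 also: compounds incubated with infected cells for about four days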
# [16] = biological target: T7, High affinity choline transporter 1 (Homo sapiens, UniProt Q9GZV3); test: CHT inhibitors, dose response, cell-based, 5-point CRC, membrane potential dye (AID 504840); assay type: functional
# T7 sequence (Q9GZV3 whole entry): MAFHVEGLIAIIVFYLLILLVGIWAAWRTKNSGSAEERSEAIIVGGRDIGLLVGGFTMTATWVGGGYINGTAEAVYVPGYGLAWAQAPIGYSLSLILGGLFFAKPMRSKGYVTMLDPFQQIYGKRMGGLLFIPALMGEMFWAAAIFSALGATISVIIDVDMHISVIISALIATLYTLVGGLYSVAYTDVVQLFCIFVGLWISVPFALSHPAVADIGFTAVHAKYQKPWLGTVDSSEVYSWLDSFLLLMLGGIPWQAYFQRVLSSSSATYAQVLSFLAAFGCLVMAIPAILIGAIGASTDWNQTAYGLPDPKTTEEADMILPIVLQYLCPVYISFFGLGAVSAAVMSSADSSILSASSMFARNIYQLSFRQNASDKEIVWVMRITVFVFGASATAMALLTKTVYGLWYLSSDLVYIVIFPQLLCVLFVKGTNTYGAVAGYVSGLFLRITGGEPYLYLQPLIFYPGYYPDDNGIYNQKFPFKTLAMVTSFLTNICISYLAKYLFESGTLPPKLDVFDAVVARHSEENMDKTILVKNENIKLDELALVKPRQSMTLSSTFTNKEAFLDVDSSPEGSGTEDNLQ
smiles,measurement,setting,value
CC1(O)CC(c2ccc(Cl)cc2)=NN1C(=O)c1ccc([N+](=O)[O-])cc1 (configuration not stated),CC50,[1],19.5 µM (active)
same,CC50,[2],24.7 µM (active)
same,EC50,[3],12.5 µM (active)
same,IC50,cells,14.2 µM (active)
same,EC50,[4],0.404 µM (active)
same,CC50,[5],> 20 µM (active)
same,AC50,[6],3.86 µM (active)
same,EC50,[7],> 180 µM (inactive)
same,CC50,[8],15.5 µM (active)
same,EC50,[9],> 150 µM (inconclusive)
CC(=O)c1sc2nc(-c3cccs3)cc(C(F)(F)F)c2c1N,EC50,[10],> 300 µM (not active)
same,EC50,[11],22.3 µM (inactive)
same,EC50,[12],45.9 µM (active)
same,EC50,[13],> 99 µM (inactive)
CCOC(=O)[C@H]1[C@H]2COc3ccccc3[C@@H]2N2C(=O)CN(Cc3ccc(C)cc3)C(=O)[C@@]12C,EC50,[11],> 99 µM (inactive)
same,EC50,[13],> 99 µM (inactive)
CCOC(=O)c1c(NC(=O)C2C3C=CC(C3)C2(C)C(=O)O)sc2c1CCCC2 (configuration not stated),IC50,Leucine aminopeptidase,8.1 µM (active)
same,IC50,[14],16.1 µM (active)
O=C(COc1cccc2ccccc12)Nc1cc(Cl)ccc1C(=O)O,IC50,Genome polyprotein,40.5 µM (active)
C[C@H](CO)N1C[C@H](C)[C@@H](CN(C)Cc2ccc(C(F)(F)F)cc2)Oc2ccc(NS(=O)(=O)c3ccc(F)cc3)cc2C1=O,AC50,[15],3.48 µM (active)
O=C(NCc1ccccc1)c1sc(=S)n2c1[nH]c(=O)c1ccccc12,EC50,[3],6.61 µM (active)
same,EC50,[4],0.706 µM (active)
same,IC50,Genome polyprotein,77 µM (active)
same,EC50,[7],> 180 µM (inactive)
same,IC50,[16],22 µM (active)
same,EC50,[9],> 150 µM (inactive)
COc1ccc(NC(=O)Nc2ccc3c(c2)CC(=O)N([C@H](C)CO)C[C@@H](C)[C@@H](CN(C)Cc2ccc(C(=O)Nc4ccccc4N)cc2)O3)cc1,AC50,[15],2.16 µM (active)
